Test results: paper PMC3390782 (Angewandte Chemie (International Ed. in English), 2012)
Converted amounts (≈) assume the structure as drawn.

Assays:
[1] = test system: E. coli BL21 (DE3) with AAC(6')/APH(2”)-pET22b; experiment: MIC, antibacterial activity; format: cell-based
MRSA = experiment: MIC, antibacterial activity; format: cell-based, Staphylococcus aureus; settings: strain C, Gram-positive
S. mutans UA159 [2] = experiment: MIC, antibacterial activity; format: cell-based
VRE = experiment: MIC, antibacterial activity; format: cell-based, Enterococcus; settings: strain J, Gram-positive
B. cereus ATCC11778 = experiment: MIC, antibacterial activity; format: cell-based; settings: strain H, Gram-positive
[3] = test system: E. coli BL21 (DE3) with Eis; experiment: MIC, antibacterial activity; format: cell-based
[4] = test system: B. subtilis 168 with AAC(6')/APH(2”)-pRB374; experiment: MIC, antibacterial activity; format: cell-based; settings: strain G, Gram-positive
[5] = test system: Shigella clinical isolate 6831; experiment: MIC, antibacterial activity; format: cell-based
S. epidermidis AJCCM228 = experiment: MIC, antibacterial activity; format: cell-based
[6] = test system: L. monocyfogenes ATCC19115; experiment: MIC, antibacterial activity; format: cell-based, L. monocytogenes; settings: strain L, Gram-positive
E. coli BL21 (DE3) = experiment: MIC, antibacterial activity; format: cell-based
E. coli TolC = experiment: MIC, antibacterial activity; format: cell-based
[7] = test system: E. coli BL21 (DE3) with AAC(3)-IV-lnt-pET19b-pps; experiment: MIC, antibacterial activity; format: cell-based
[8] = test system: B. anthracis 34F2 Sterne strain; format: cell-based; settings: strain I, Gram-positive
S. aureus NorA = experiment: MIC, antibacterial activity; format: cell-based
[9] = test system: E coli BL21 (DE3) with pET22b; experiment: MIC, antibacterial activity; format: cell-based
S. enterica ATCC14028 = experiment: MIC, antibacterial activity; format: cell-based; settings: strain U, Gram-negative
E. coli MC1061 = experiment: MIC, antibacterial activity; format: cell-based
[10] = test system: S. pyogenes serotype M12 (strain MGAS9429); experiment: MIC, antibacterial activity; format: cell-based
E. faecalis ATCC29212 = experiment: MIC, antibacterial activity; format: cell-based
B. subtilis 168 = experiment: MIC, antibacterial activity; format: cell-based; settings: strain F, Gram-positive
S. pyogenes = experiment: Time of kill assay; format: cell-based; settings: at MIC (4e 2.3 μg/mL, TOB 18.8 μg/mL); after 3 hours of incubation
[11] = test system: B. subtilis with constitutive YFP expression (PY79); experiment: Fluorescence microscopy of YFP-expressing bacteria; format: cell-based
human RBCs = experiment: Hemolysis assay; settings: 1 h at 37 °C
S. mutans UA159 [12] = experiment: Time of kill assay; format: cell-based; settings: at MIC (4e 2.3 μg/mL, TOB 75 μg/mL); after 5 hours of incubation
rat RBCs = experiment: Hemolysis assay; settings: 1 h at 37 °C
[13] = test system: luciferase translation in lysates of E. coli; settings: read-out: IC50, inhibition of luciferase translation; cited from earlier work

Structure (SMILES): CCCCCCCCSCC1OC(OC2C(N)CC(N)C(OC3OC(CN)C(O)CC3N)C2O)C(O)C(N)C1O (stereo not drawn) [4b]
- MIC ([1]; strain O, Gram-negative): >150 µg/mL
- MIC (MRSA): >150 µg/mL
- MIC (S. mutans UA159 [2]; strain E, Gram-positive): 150 µg/mL (≈ 252 µM)
- MIC (VRE): >150 µg/mL
- MIC (B. cereus ATCC11778): 150 µg/mL (≈ 252 µM)
- MIC ([3]; strain Q, Gram-negative): >150 µg/mL
- MIC [4]: >150 µg/mL
- MIC ([5]; strain T, Gram-negative): >150 µg/mL
- MIC (S. epidermidis AJCCM228; strain A, Gram-positive): 75 µg/mL (≈ 126 µM)
- MIC [6]: >150 µg/mL
- MIC (E. coli BL21 (DE3); strain M, Gram-negative): >150 µg/mL
- MIC (E. coli TolC; strain R, Gram-negative): 9.4 µg/mL (≈ 15.8 µM)
- MIC ([7]; strain P, Gram-negative): >150 µg/mL
- MIC [8]: 75 µg/mL (≈ 126 µM)
- MIC (S. aureus NorA; strain B, Gram-positive): 150 µg/mL (≈ 252 µM)
- MIC ([9]; strain N, Gram-negative): >150 µg/mL
- MIC (S. enterica ATCC14028): >150 µg/mL
- MIC (E. coli MC1061; strain S, Gram-negative): 75 µg/mL (≈ 126 µM)
- MIC ([10]; strain D, Gram-positive): 150 µg/mL (≈ 252 µM)
- MIC (E. faecalis ATCC29212; strain K, Gram-positive): >150 µg/mL
- MIC (B. subtilis 168): 37.5 µg/mL (≈ 62.9 µM)

Structure (SMILES): CCCCCCCCCCSCC1OC(OC2C(N)CC(N)C(OC3OC(CN)C(O)CC3N)C2O)C(O)C(N)C1O (stereo not drawn) [4c]
- MIC (MRSA): 75 µg/mL (≈ 120 µM)
- MIC (B. cereus ATCC11778): 18.8 µg/mL (≈ 30.1 µM)
- MIC [6]: 37.5 µg/mL (≈ 60.1 µM)
- MIC (E. coli BL21 (DE3); strain M, Gram-negative): 75 µg/mL (≈ 120 µM)
- MIC (S. aureus NorA; strain B, Gram-positive): 37.5 µg/mL (≈ 60.1 µM)
- MIC (B. subtilis 168): 37.5 µg/mL (≈ 60.1 µM)

Structure (SMILES): CCCCCCCCCCCCSCC1OC(OC2C(N)CC(N)C(OC3OC(CN)C(O)CC3N)C2O)C(O)C(N)C1O (stereo not drawn) [4d]
- MIC (MRSA): 37.5 µg/mL (≈ 57.5 µM)
- MIC [6]: 18.8 µg/mL (≈ 28.8 µM)
- MIC (E. coli BL21 (DE3); strain M, Gram-negative): 18.8 µg/mL (≈ 28.8 µM)
- MIC (E. coli MC1061; strain S, Gram-negative): 18.8 µg/mL (≈ 28.8 µM)

Structure (SMILES): CCCCCCCCCCCCCCSC[C@H]1O[C@H](O[C@@H]2[C@@H](O)[C@H](O[C@H]3O[C@H](CN)[C@@H](O)C[C@H]3N)[C@@H](N)C[C@H]2N)[C@H](O)[C@@H](N)[C@@H]1O [4e]
- MIC ([1]; strain O, Gram-negative): 4.7 µg/mL (≈ 6.91 µM)
- MIC (MRSA): 9.4 µg/mL (≈ 13.8 µM)
- Time of kill: viable bacteria after incubation (S. pyogenes): no viable bacteria remained
- MIC (S. mutans UA159 [2]; strain E, Gram-positive): 2.3 µg/mL (≈ 3.38 µM)
- MIC (VRE): 18.8 µg/mL (≈ 27.6 µM)
- Cell viability / YFP fluorescence by microscopy [11]: a significant drop in fluorescence
- MIC ([3]; strain Q, Gram-negative): 4.7 µg/mL (≈ 6.91 µM)
- MIC [4]: 4.7 µg/mL (≈ 6.91 µM)
- hemolysis of human RBCs (human RBCs; 18.8 μg/mL): 14.3 ± 1.7%
- MIC [6]: 9.4 µg/mL (≈ 13.8 µM)
- MIC (E. coli BL21 (DE3); strain M, Gram-negative): 4.7 µg/mL (≈ 6.91 µM)
- Time of kill: viable bacteria after incubation (S. mutans UA159 [12]): no viable bacteria remained
- MIC (E. coli TolC; strain R, Gram-negative): 4.7 µg/mL (≈ 6.91 µM)
- MIC ([7]; strain P, Gram-negative): 2.3 µg/mL (≈ 3.38 µM)
- MIC [8]: 0.3 µg/mL (≈ 0.441 µM)
- MIC (S. aureus NorA; strain B, Gram-positive): 9.4 µg/mL (≈ 13.8 µM)
- MIC ([9]; strain N, Gram-negative): 4.7 µg/mL (≈ 6.91 µM)
- MIC (S. enterica ATCC14028): 37.5 µg/mL (≈ 55.1 µM)
- MIC (E. coli MC1061; strain S, Gram-negative): 4.7 µg/mL (≈ 6.91 µM)
- MIC ([10]; strain D, Gram-positive): 2.3 µg/mL (≈ 3.38 µM)
- MIC (E. faecalis ATCC29212; strain K, Gram-positive): 75 µg/mL (≈ 110 µM)
- hemolysis of rat RBCs (rat RBCs; 18.8 μg/mL): 19.5 ± 0.3%

Structure (SMILES): CCCCCCCCCCCCS(=O)(=O)CC1OC(OC2C(N)CC(N)C(OC3OC(CN)C(O)CC3N)C2O)C(O)C(N)C1O (stereo not drawn) [6d]
- MIC ([1]; strain O, Gram-negative): >150 µg/mL
- MIC (MRSA): 75 µg/mL (≈ 110 µM)
- MIC (S. mutans UA159 [2]; strain E, Gram-positive): 9.4 µg/mL (≈ 13.7 µM)
- MIC (VRE): 75 µg/mL (≈ 110 µM)
- MIC (B. cereus ATCC11778): 9.4 µg/mL (≈ 13.7 µM)
- MIC ([3]; strain Q, Gram-negative): >150 µg/mL
- MIC [4]: >150 µg/mL
- MIC ([5]; strain T, Gram-negative): >150 µg/mL
- MIC (S. epidermidis AJCCM228; strain A, Gram-positive): 9.4 µg/mL (≈ 13.7 µM)
- MIC [6]: 9.4 µg/mL (≈ 13.7 µM)
- MIC (E. coli BL21 (DE3); strain M, Gram-negative): 75 µg/mL (≈ 110 µM)
- MIC (E. coli TolC; strain R, Gram-negative): 2.3 µg/mL (≈ 3.36 µM)
- MIC ([7]; strain P, Gram-negative): >150 µg/mL
- MIC [8]: 2.3 µg/mL (≈ 3.36 µM)
- MIC (S. aureus NorA; strain B, Gram-positive): 37.5 µg/mL (≈ 54.8 µM)
- MIC ([9]; strain N, Gram-negative): >150 µg/mL
- MIC (S. enterica ATCC14028): >150 µg/mL
- MIC (E. coli MC1061; strain S, Gram-negative): 18.8 µg/mL (≈ 27.5 µM)
- MIC ([10]; strain D, Gram-positive): 18.8 µg/mL (≈ 27.5 µM)
- MIC (E. faecalis ATCC29212; strain K, Gram-positive): 9.4 µg/mL (≈ 13.7 µM)
- MIC (B. subtilis 168): 4.7 µg/mL (≈ 6.87 µM)

Structure (SMILES): CCCCCCCCCCCCCCS(=O)(=O)CC1OC(OC2C(N)CC(N)C(OC3OC(CN)C(O)CC3N)C2O)C(O)C(N)C1O (stereo not drawn) [6e]
- MIC (MRSA): 18.8 µg/mL (≈ 26.4 µM)
- MIC (VRE): 37.5 µg/mL (≈ 52.7 µM)
- MIC (E. coli BL21 (DE3); strain M, Gram-negative): 18.8 µg/mL (≈ 26.4 µM)
- MIC (S. aureus NorA; strain B, Gram-positive): 18.8 µg/mL (≈ 26.4 µM)

Structure (SMILES): NC[C@H]1O[C@H](O[C@H]2[C@H](O)[C@@H](O[C@H]3O[C@H](CO)[C@@H](O)[C@H](N)[C@H]3O)[C@H](N)C[C@@H]2N)[C@H](N)C[C@@H]1O [TOB, tobramycin, reference compound]
- MIC ([1]; Escherichia coli): > 150 µg/mL
- MIC ([1]; strain O, Gram-negative): >150 µg/mL
- MIC (MRSA; Staphylococcus aureus, MRSA): ≥ 150 µg/mL
- Time of kill: viable bacteria after incubation (S. pyogenes): almost no reduction in bacterial growth
- MIC (S. mutans UA159 [2]; Streptococcus mutans, UA159): 75 µg/mL (≈ 160 µM)
- MIC (VRE; Enterococcus, VRE): ≥ 150 µg/mL
- MIC ([3]; Escherichia coli): 18.8 µg/mL (≈ 40.2 µM)
- IC50 [13]: ~20 nM
- MIC ([5]; Shigella): 18.8 µg/mL (≈ 40.2 µM)
- hemolysis of human RBCs (human RBCs; 75 μg/mL): no measurable hemolysis
- MIC (S. epidermidis AJCCM228; Staphylococcus epidermidis, AJCCM228): 0.3 µg/mL (≈ 0.642 µM)
- MIC (E. coli BL21 (DE3); Escherichia coli): 4.7 µg/mL (≈ 10.1 µM)
- Time of kill: viable bacteria after incubation (S. mutans UA159 [12]): almost no reduction in bacterial growth
- MIC (E. coli TolC; Escherichia coli): 4.7 µg/mL (≈ 10.1 µM)
- MIC ([7]; Escherichia coli): 150 µg/mL (≈ 321 µM)
- MIC (S. aureus NorA; Staphylococcus aureus): 9.4 µg/mL (≈ 20.1 µM)
- MIC ([9]; Escherichia coli): 9.4 µg/mL (≈ 20.1 µM)
- MIC (E. coli MC1061; Escherichia coli, MC1061): 9.4 µg/mL (≈ 20.1 µM)
- MIC ([10]; Streptococcus pyogenes): 18.8 µg/mL (≈ 40.2 µM)
- MIC (E. faecalis ATCC29212; Enterococcus faecalis, ATCC29212): 150 µg/mL (≈ 321 µM)
- hemolysis of rat RBCs (rat RBCs; 75 μg/mL): no measurable hemolysis
